This assay deals with WT αHL protein pore (Staphylococcus aureus, UniProt P09616). The format is binding. To be noted: pH 7.
WT αHL protein pore, sequence (P09616 27-319 limits assumed): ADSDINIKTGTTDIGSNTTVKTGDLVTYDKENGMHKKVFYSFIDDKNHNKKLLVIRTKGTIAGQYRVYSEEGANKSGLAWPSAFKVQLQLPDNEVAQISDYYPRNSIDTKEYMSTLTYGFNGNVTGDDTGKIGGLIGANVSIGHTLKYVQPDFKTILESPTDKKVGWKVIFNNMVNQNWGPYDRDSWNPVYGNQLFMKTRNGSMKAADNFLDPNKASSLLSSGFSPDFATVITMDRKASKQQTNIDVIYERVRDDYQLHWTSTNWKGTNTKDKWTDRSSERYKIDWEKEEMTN

For the compound `OC[C@H]1O[C@@H]2O[C@H]3[C@H](O)[C@@H](O)[C@@H](O[C@H]4[C@H](O)[C@@H](O)[C@@H](O[C@H]5[C@H](O)[C@@H](O)[C@@H](O[C@H]6[C@H](O)[C@@H](O)[C@@H](O[C@H]7[C@H](O)[C@@H](O)[C@@H](O[C@H]8[C@H](O)[C@@H](O)[C@@H](O[C@H]9[C@H](O)[C@@H](O)[C@@H](O[C@H]1[C@H](O)[C@H]2O)O[C@@H]9CO)O[C@@H]8CO)O[C@@H]7CO)O[C@@H]6CO)O[C@@H]5CO)O[C@@H]4CO)O[C@@H]3CO` [γ-cyclodextrin], the “binding kinetics and current attenuation of γ-cyclodextrin binding, pore inserted by the present method compared with the conventional method” value was “the same”.

For the origin of these results see patent publication US7939270B2 (priority 2005, dated 2011).
